Where a SMILES comes first, the peptide text is derived from it. Where no end group is shown, it is not given here.
What follows are compounds tested against T1, HIV-1 protease (Human immunodeficiency virus type 1 group M subtype B, UniProt P04585) (assay: HIV-1 protease hydrolysis of synthetic cleavage-site peptide substrates (RP-HPLC, Lineweaver-Burk)). Settings: Gag cleavage sites.
Assay type: biochemical
Experimental: […] Reactions were terminated with 190 μl of a solution of 8M guanidine hydrochloride and 1% trifluroacetic acid (TFA) and subjected to reverse-phase high performance liquid chromotography ("RP-HPLC") on a C18 column. The substrate and cleavage products were separated with a linear gradient of 0 to 50% acetonitrile in water containing 0.05% TFA. The identity of the cleavage products was confirmed by electrospray mass spectroscopy. Peak areas were integrated using the Turbochrom 4 software (Perkin Elmer, San Jose, Calif.). Lineweaver-Burk analysis was used to determine kcat and Km.

Q: Which “kcat /Km” value does the source give for PGNF*LQSR here?
A: Its value is 600 M⁻¹ s⁻¹.

Q: RQAN*FLGK was tested. Which “kcat /Km” value did it give?
A: Its value is 1600 M⁻¹ s⁻¹.

Q: How did the “kcat /Km” value turn out when ARVL*AEAM was run?
A: The value was 90000 M⁻¹ s⁻¹.

Q: For SQNY*PIVQ, which “kcat /Km” value is on record?
A: Its value is 45000 M⁻¹ s⁻¹.

Q: With ATIM*MQRG as the compound, how does the “kcat /Km” value read?
A: The value was 74000 M⁻¹ s⁻¹.

Same assay, conditions: Pol cleavage sites

Q: For “ERQANFLRED [ERQAN*FLRED, Glu-Arg-Gln-Ala-Asn-Phe-Leu-Arg-Glu-Asp]”, which “kcat /Km” value is on record?
A: Its value is 0.019 M⁻¹ s⁻¹.

Q: SFNF*PQIT was tested. Which “kcat /Km” value did it give?
A: The value was 7000 M⁻¹ s⁻¹.

Q: For “DLAFLQGK [DLAF*LQGK, Asp-Leu-Ala-Phe-Leu-Gln-Gly-Lys]”, which “kcat /Km” value is on record?
A: The value was 1200 M⁻¹ s⁻¹.

Q: Which “kcat /Km” value does the source give for RKIL*FLDG here?
A: The value was 200000 M⁻¹ s⁻¹.

Q: TLNF*PISP was tested. Which “kcat /Km” value did it give?
A: The value was 24000 M⁻¹ s⁻¹.

Q: For AETF*YVDG, which “kcat /Km” value is on record?
A: The value was 10000 M⁻¹ s⁻¹.

Each compound was assayed against T1, HIV-1 protease (assay: biochemical). Settings: not given.
Experimental: HIV-1 protease was obtained and its active site concentration was determined at 25° C. Purified enzyme was stored as a 5-8 μM stock solution in 50 mM NaOAc (pH 5.0), 1 mM DTT, 1 mM EDTA, 0.05% reduced Triton X-100 at -80° C. Porcine pepsin was prepared as 1-2 mg/ml in 50 mM formic acid (pH 3.0). The peptide concentrations were adjusted for their protein content.
HIV-1 protease activity was measured at 25° C. using substrate I (Lys-Ala-Arg-Val-Nle-Phe (NO2) -Glu-Ala-Nle-NH2 wherein Nle is norleucine and Phe (NO2) is 4-nitrophenylalamine). In a typical assay, 2.5 μl of enzyme was added to 97.5 μl of buffer and 2.5 mM DTT in the presence or absence of varying concentrations of inhibitor. The reaction was initiated by the addition of 10 μl of a 4 mM solution of substrate I in water and monitored by following the decrease in absorption at […] in a 100 μl spectrophotometric cell. Pepsin was assayed using substrate II (Phe-Gly-His-Phe(NO2)-Phe-Ala-PheOCH3). […] Concentrations of substrate solutions were determined spectrophotometrically at […].
The enzyme was assayed in the presence of the inhibitor in 50 mM sodium formate at pH 4.25 and 2.5 mM DTT. […] Peptides 12a and 12b were assayed at pH 4.4 and contained 0.083% and 0.02% DMSO, respectively.

Q: How did the Ki turn out when `N[C@@H](CCC(=O)O)C(=O)O` [Peptide 16, Glutamic acid, reference compound] was run?
A: Its Ki is > 50000 µM.

Q: Which Ki does the source give for `N[C@@H](CC(=O)O)C(=O)N[C@@H](CC(=O)O)C(=O)O` [Peptide 13, Asp--Asp] (H-Asp-Asp-OH) here?
A: Its Ki is 970 ± 140 µM.

Q: For `N[C@@H](CC(=O)O)C(=O)O` [Peptide 17, Aspartic acid, reference compound], which Ki is on record?
A: The Ki was > 50000 µM.

Q: “FLREDLAF [Peptide 1, Phe--Leu--Arg--Glu--Asp--Leu--Ala--Phe]” was tested. Which Ki did it give?
A: The Ki was 98 ± 10 µM.

Same assay, conditions: 50 mM sodium formate pH 4.25, 2.5 mM DTT, substrate I 390 μM, 25° C.; peptides 1, 2, 4 from apparent Km vs [I], others from 1/V vs [I]; read-out: Ki

Q: With Glu--Lys--Phe (EKF) [Peptide 11] as the compound, how does the Ki read?
A: Its Ki is 2010 ± 360 µM.

Same assay, conditions: Ki, 50 mM sodium formate pH 4.25, 2.5 mM DTT, substrate I 390 μM, 25° C.; peptides 1, 2, 4 from apparent Km vs [I], others from 1/V vs [I]

Q: For `CC(C)C[C@H](NC(=O)[C@H](CCC(=O)O)NC(=O)[C@@H](N)CCC(=O)O)C(=O)O` [Peptide 8, Glu--Glu--Leu] (H-Glu-Glu-Leu-OH), which Ki is on record?
A: Its Ki is 310 ± 25 µM.

Q: Which Ki does the source give for `N[C@@H](CC(=O)O)C(=O)N[C@@H](CCC(=O)O)C(=O)O` [Peptide 14, Asp--Glu] (H-Asp-Glu-OH) here?
A: Its Ki is 5400 ± 380 µM.

Q: Which Ki does the source give for `CC(C)C[C@H](NC(=O)[C@H](CC(=O)O)NC(=O)[C@@H](N)CC(=O)O)C(=O)O` [Peptide 9, Asp--Asp--Leu] (H-Asp-Asp-Leu-OH) here?
A: Its Ki is 140 ± 6 µM.

Q: “GEDLAF [Peptide 2, Gly--Glu--Asp--Leu--Ala--Phe]” was tested. Which Ki did it give?
A: Its Ki is 64 ± 13 µM.

Q: How did the Ki turn out when `CC(C)C[C@H](NC(=O)[C@H](CC(N)=O)NC(=O)[C@@H](N)CCC(=O)O)C(=O)O` [Peptide 10, Glu--Asn--Leu] (H-Glu-Asn-Leu-OH) was run?
A: Its Ki is 3070 ± 210 µM.

Q: For `CC(C)C[C@H](NC(=O)[C@H](CC(=O)O)NC(=O)[C@@H](N)CCC(=O)O)C(=O)N[C@@H](C)C(=O)O` [Peptide 3, Glu--Asp--Leu--Ala] (H-EDLA-OH), which Ki is on record?
A: The Ki was 160 ± 20 µM.

Q: For `CC(C)C[C@H](NC(=O)[C@@H](N)CC(=O)O)C(=O)N[C@@H](C)C(=O)N[C@@H](Cc1ccccc1)C(=O)O` [Peptide 6, Asp--Leu--Ala--Phe] (H-DLAF-OH), which Ki is on record?
A: The Ki was 270 ± 25 µM.

Q: For `CC(C)C[C@H](NC(=O)[C@H](CCC(=O)O)NC(=O)[C@@H](N)CC(=O)O)C(=O)O` [Peptide 7, Asp--Glu--Leu] (H-Asp-Glu-Leu-OH), which Ki is on record?
A: The Ki was 230 ± 20 µM.

Q: “FLRQNLAF [Peptide 18, Phe--Leu--Arg--Gln--Asn--Leu--Ala--Phe]” was tested. Which Ki did it give?
A: The Ki was 2000 µM.

Q: Which Ki does the source give for `N=C(N)NCCC[C@H](N)C(=O)N[C@@H](CCC(=O)O)C(=O)N[C@@H](CC(=O)O)C(=O)O` [Peptide 5, Arg--Glu--Asp] (H-Arg-Glu-Asp-OH) here?
A: The Ki was 3360 ± 400 µM.

Q: For `NC(=O)CC[C@H](NC(=O)[C@@H](N)CC(=O)O)C(=O)O` [Peptide 15, Asp--Gln] (H-Asp-Gln-OH), which Ki is on record?
A: The Ki was > 1000 µM.

Q: How did the Ki turn out when `N[C@@H](CCC(=O)O)C(=O)N[C@@H](CC(=O)O)C(=O)N[C@@H](Cc1ccccc1)C(=O)O` [Peptide 12, Glu--Asp--Phe] (H-Glu-Asp-Phe-OH) was run?
A: Its Ki is 25 ± 3 µM.

Same assay, conditions: Ki, NaCl 0 M; 50 mM sodium formate pH 4.25, 2.5 mM DTT; 1/V vs [I]

Q: How did the Ki turn out when `CC(C)C[C@H](NC(=O)[C@@H](N)CC(=O)O)C(=O)N[C@@H](C)C(=O)N[C@@H](Cc1ccccc1)C(=O)O` [Peptide 6, Asp--Leu--Ala--Phe] (H-DLAF-OH) was run?
A: Its Ki is 270 ± 25 µM.

Q: `N[C@@H](CCC(=O)O)C(=O)N[C@@H](CC(=O)O)C(=O)N[C@@H](Cc1ccccc1)C(=O)O` [Peptide 12, Glu--Asp--Phe] (H-Glu-Asp-Phe-OH) was tested. Which Ki did it give?
A: The Ki was 15 ± 2 µM.

Same assay, conditions: Ki, NaCl 1 M; 50 mM sodium formate pH 4.25, 2.5 mM DTT; 1/V vs [I]

Q: How did the Ki turn out when `CC(C)C[C@H](NC(=O)[C@@H](N)CC(=O)O)C(=O)N[C@@H](C)C(=O)N[C@@H](Cc1ccccc1)C(=O)O` [Peptide 6, Asp--Leu--Ala--Phe] (H-DLAF-OH) was run?
A: The Ki was 3260 ± 390 µM.

Q: `N[C@@H](CCC(=O)O)C(=O)N[C@@H](CC(=O)O)C(=O)N[C@@H](Cc1ccccc1)C(=O)O` [Peptide 12, Glu--Asp--Phe] (H-Glu-Asp-Phe-OH) was tested. Which Ki did it give?
A: Its Ki is 410 ± 25 µM.

Same assay, conditions: Ki, pH 4.4; 0.083% (12a) and 0.02% (12b) DMSO; 1/V vs [I]

Q: How did the Ki turn out when `N[C@@H](CC(=O)O)C(=O)N[C@@H](CC(=O)O)C(=O)N[C@@H](Cc1ccccc1)C(=O)O` [Peptide 12a, Asp--Asp--Phe] (H-Asp-Asp-Phe-OH) was run?
A: Its Ki is 43 ± 7 µM.

Q: For `N[C@@H](Cc1ccccc1)C(=O)N[C@@H](CC(=O)O)C(=O)N[C@@H](CC(=O)O)C(=O)N[C@@H](Cc1ccccc1)C(=O)O` [Peptide 12b, Phe--Asp--Asp--Phe] (H-FDDF-OH), which Ki is on record?
A: Its Ki is 55 ± 14 µM.

Each compound was assayed against T1, HIV-1 protease (assay: biochemical). Settings: 1M NaCl, 50 mM sodium formate, pH 4.0, 2.5 mM DTT, 25° C.

Q: Which Ki does the source give for `CC(C)C[C@H](NC(=O)[C@@H](N)CC(=O)O)C(=O)N[C@@H](C)C(=O)N[C@@H](Cc1ccccc1)C(=O)O` [Peptide 6, Asp--Leu--Ala--Phe] (H-DLAF-OH) here?
A: Its Ki is 3260 ± 390 µM.

Q: For `N[C@@H](CCC(=O)O)C(=O)N[C@@H](CC(=O)O)C(=O)N[C@@H](Cc1ccccc1)C(=O)O` [Peptide 12, Glu--Asp--Phe] (H-Glu-Asp-Phe-OH), which Ki is on record?
A: Its Ki is 410 ± 25 µM.

Each compound was assayed on mature HIV-1 protease (assay: 50 mM sodium acetate, pH 5.0 or 100 mM sodium phosphate at pH 5.5 containing 1 mM DTT, 1 mM EDTA, 1M NaCl). Settings: 37° C.

Q: How did the cleaved bond turn out when DLAFLQGK was run?
A: The cleaved bond was “Phe-Leu”.

Q: With ERQANFLRED as the compound, how does the cleaved bond read?
A: The cleaved bond was “Asn-Phe”.

From US5872210A (priority 1995, dated 1999)
